What was measured:
Assay in all cases: relative viability (nuclei count vs DMSO), 5 days (fraction); higher = more cells survive
[1] = compound: Cn1cnc2c(F)c(Nc3ccc(Br)cc3Cl)c(C(=O)NOCCO)cc21 [Selumetinib] + Nc1ncn([C@H]2C[C@H](O)[C@@H](CO)O2)c(=O)n1 [Decitabine] (partner 2 µM)
Outline: (§1)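 One day after seeding in 1536-well plates, lung cancer cell lines were dosed by pin tool. Dosing was either single-drug or a fixed anchor-drug dose plus five library-drug doses (not always all listed) in √10 steps. After 5 days, nuclei were stained in one fix-and-stain step and counted on 4× images, and relative viability is the nuclei count of treated wells over that of vehicle wells, given as the median of duplicate plates.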

[2] = compound: Cn1cnc2c(F)c(Nc3ccc(Br)cc3Cl)c(C(=O)NOCCO)cc21 [Selumetinib] + COc1cccc2cc(-c3nc([C@H]4CC[C@H](C(=O)O)CC4)n4ncnc(N)c34)[nH]c12 [OSI-027] (partner 0.5 µM)
Outline: as §1

[3] = compound: Cn1cnc2c(F)c(Nc3ccc(Br)cc3Cl)c(C(=O)NOCCO)cc21 [Selumetinib] + O=C(c1cc(Cc2n[nH]c(=O)c3ccccc23)ccc1F)N1CCN(C(=O)C2CC2)CC1 [Olaparib] (partner 8 µM)
Outline: as §1

[4] = compound: CC1(C)CCC(CN2CCN(c3ccc(C(=O)NS(=O)(=O)c4ccc(NCC5CCOCC5)c([N+](=O)[O-])c4)c(Oc4cnc5[nH]ccc5c4)c3)CC2)=C(c2ccc(Cl)cc2)C1 [Venetoclax] + Nc1nc2[nH]cc(CCc3ccc(C(=O)N[C@@H](CCC(=O)O)C(=O)O)cc3)c2c(=O)[nH]1 [Pemetrexed] (partner 0.2 µM)
Outline: as §1

Row | Cell Line | relative viability ([1]; first compound 0.02 µM) | relative viability ([1]; first compound 0.06325 µM) | relative viability ([1]; first compound 0.2 µM) | relative viability ([1]; first compound 0.6325 µM) | relative viability ([2]; first compound 0.02 µM) | relative viability ([2]; first compound 0.06325 µM) | relative viability ([2]; first compound 0.2 µM) | relative viability ([2]; first compound 0.6325 µM) | relative viability ([3]; first compound 0.02 µM) | relative viability ([3]; first compound 0.06325 µM) | relative viability ([3]; first compound 0.2 µM) | relative viability ([3]; first compound 0.6325 µM) | relative viability ([4]; first compound 0.01 µM) | relative viability ([4]; first compound 0.03162 µM) | relative viability ([4]; first compound 0.1 µM) | relative viability ([4]; first compound 0.3162 µM) | relative viability ([4]; first compound 1 µM)
1 | HCC-78 | 0.819 | 0.759 | 0.779 | 0.685 | 0.346 | 0.397 | 0.396 | 0.385 | 0.904 | 0.738 | 0.723 | 0.789 | 0.896 | 0.875 | 0.965 | 0.935 | 0.881
2 | HOP-62 | 0.164 | 0.278 | 0.238 | 0.232 | 0.887 | 0.751 | 0.818 | 0.5 | 0.474 | 0.397 | 0.421 | 0.353 | 0.356 | 0.335 | 0.287 | 0.313 | 0.355
3 | NCI-H1623 | – | – | – | – | 0.39 | 0.383 | 0.343 | 0.359 | – | – | – | – | – | – | – | – | –
4 | NCI-H3122 | 0.401 | 0.394 | 0.401 | 0.452 | 0.709 | 0.512 | 0.417 | 0.291 | 0.609 | 0.571 | 0.563 | 0.565 | 0.179 | 0.2 | 0.199 | 0.188 | 0.198
5 | RERF-LC-KJ | 0.682 | 0.608 | 0.639 | 0.737 | 0.535 | 0.477 | 0.526 | 0.472 | 0.878 | 0.896 | 0.889 | 0.892 | 0.473 | 0.487 | 0.45 | 0.438 | 0.506
6 | NCI-H1703 | – | – | – | – | – | – | – | – | 0.521 | 0.411 | 0.39 | 0.605 | – | – | – | – | –
7 | HCC-15 | 0.556 | 0.449 | 0.438 | 0.392 | 0.522 | 0.344 | 0.256 | 0.19 | 0.694 | 0.622 | 0.575 | 0.368 | 0.24 | 0.236 | 0.217 | 0.217 | 0.201
8 | NCI-H1666 | 0.758 | 0.682 | 0.689 | 0.71 | 0.909 | 0.717 | 0.793 | 0.717 | 0.722 | 0.711 | 0.715 | 0.686 | 0.726 | 0.916 | 0.919 | 0.805 | 0.799
9 | NCI-H1395 | 0.698 | 0.712 | 0.675 | 0.639 | 0.625 | 0.641 | 0.628 | 0.631 | 0.452 | 0.488 | 0.482 | 0.46 | 0.823 | 0.862 | 0.764 | 0.95 | 0.819
10 | LCLC-97TM1 | 0.258 | 0.217 | 0.296 | 0.197 | 0.487 | 0.386 | 0.325 | 0.249 | 0.292 | 0.407 | 0.3 | 0.19 | 0.165 | 0.182 | 0.167 | 0.163 | 0.153
11 | NCI-H1299 | – | – | – | – | – | – | – | – | 1.08 | 1.08 | 1.11 | 0.932 | – | – | – | – | –
12 | NCI-H1563 | – | – | – | – | 0.721 | 0.713 | 0.779 | 0.783 | – | – | – | – | 0.847 | 0.902 | 0.798 | 0.744 | 0.888
13 | HCC-827 | 0.362 | 0.317 | 0.351 | 0.448 | 0.782 | 0.751 | 0.62 | 0.708 | 0.705 | 0.672 | 0.681 | 0.719 | 0.239 | 0.289 | 0.25 | 0.269 | 0.28
14 | NCI-H1651 | 0.626 | 0.531 | 0.644 | 0.701 | 0.815 | 0.585 | 0.627 | 0.693 | 0.189 | 0.201 | 0.182 | 0.171 | 0.628 | 0.674 | 0.561 | 0.529 | 0.57
15 | HCC-366 | 0.353 | 0.36 | 0.315 | 0.309 | 0.911 | 0.756 | 0.72 | 0.422 | 0.415 | 0.296 | 0.198 | 0.19 | 0.16 | 0.16 | 0.172 | 0.186 | 0.197
16 | EKVX | 0.339 | 0.29 | 0.37 | 0.339 | 0.654 | 0.645 | 0.606 | 0.469 | 0.777 | 0.741 | 0.643 | 0.629 | 0.471 | 0.402 | 0.351 | 0.427 | 0.35
17 | NCI-H2228 | – | – | – | – | 0.48 | 0.512 | 0.402 | 0.374 | 0.754 | 0.69 | 0.685 | 0.608 | 0.341 | 0.331 | 0.36 | 0.272 | 0.343
18 | LK-2 | 0.305 | 0.278 | 0.404 | 0.399 | 0.2 | 0.229 | 0.203 | 0.189 | 0.811 | 0.842 | 0.818 | 0.759 | 0.331 | 0.381 | 0.255 | 0.249 | 0.227
19 | NCI-H1650 | 0.392 | 0.353 | 0.424 | 0.39 | 0.677 | 0.405 | 0.637 | 0.548 | 0.669 | 0.654 | 0.712 | 0.646 | 0.343 | 0.361 | 0.405 | 0.431 | 0.356

Reference: the supplement of paper PMC10307832
